Reference: patent US20070232492A1, “Herbicidal Composition” (Ishihara Sangyo Kaisha, LTD., priority 2004, published 2007)
Where two headings read alike, the source gives them in different places.

Legend:
Format in all cases: in vivo
[1] = test system: barnyardgrass (Echinochloa oryzicola vasing); assay: Growth inhibition of barnyardgrass in paddy soil pots, application under submerged condition, visual rating (observed value) and Colby expected value; details: Echinochloa oryzicola, soil, read-out: Growth inhibition rate (%) Observed; for inhibition at 2.3 g/ha: 0.023 g/a; for inhibition at 4.5 g/ha: 0.045 g/a
Summary of the method: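 Barnyardgrass (Echinochloa oryzicola vasing) seeds were sown in paddy field soil in 1/10,000 are pots and kept irrigated at a water depth of 3.5 cm. Wettable powders of the active ingredients were diluted with water and applied under submerged conditions at the prescribed amounts. Growth was visually scored from 0% (as untreated) to 100% (complete kill), and expected values were calculated with Colby's formula.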

[2] = test system: flatsedge (Cyperus serotinus); assay: Growth inhibition of flatsedge (planted tubers) in paddy soil pots, application under submerged condition, visual rating and Colby expected value; details: Cyperus serotinus, soil, 696 h, 2.8 to 3.2 leaf stage, 29 days after application, read-out: Growth inhibition rate (%) Observed
From the text: (§1) When the herbicidal activity in a case where two active ingredients are combined, is larger than the simple sum of the respective herbicidal activities of the two active ingredients (the expected activity), it is called a synergistic effect. The activity expected by the combination of two active ingredients can be calculated as follows (Colby S. R., “Weed”, vol. 15, p. 20-22, 1967). E=p+q−(p×q÷100) where p: growth inhibition rate when treated with x (g/a) of herbicide X,
(§2) q: growth inhibition rate when treated with y (g/a) of herbicide Y,
(§3) E: growth inhibition rate expected when treated with x (g/a) of herbicide X and y (g/a) of herbicide Y.
(§4) Namely, when the actual growth inhibition rate (observed value) is larger than the growth inhibition rate by the above calculation (expected value), the activity by the combination can be regarded as showing a synergistic effect.
(§5) Growth inhibition rate (%)=0% (equivalent to the non-treated area) to 100% (complete kill)
(§6) Paddy field soil was put into a 1/10,000 are pot, and tubers of flatsedge (Cyperus serotinus) were planted and left to stand under an irrigated condition with a water depth of 3.5 cm. When flatsedge reached 2.8 to 3.2 leaf stage, wettable powders of compound A2 and compound (B1.2) were, respectively, diluted with water and applied under submerged condition so that the active ingredients became the prescribed amounts, respectively. The state of growth was visually observed 29 days after application, and evaluation and calculation were carried out in the same manner as in the above Test Example 1.
Paddy field soil was put into a 1/3,000 are pot, and tubers of flatsedge (Cyperus serotinus) were planted and left to stand under an irrigated condition with a water depth of 3.5 cm. When flatsedge reached 4 leaf stage, a wettable powder of compound A2 and an emulsifiable concentrate of compound C4 were, respectively, diluted with water and applied under submerged condition so that the active ingredients became the prescribed amounts, respectively. The state of growth was visually observed 21 days after application, and the growth inhibition rate (%) evaluated in the same manner as in the above Test Example 1 (observed value) and the growth inhibition rate (%) calculated by the above-mentioned Colby method (expected value) are shown in Table 32.
as §6, with “2.5” for “2.8”, “3.0” for “3.2”, “A2, compound (D2.3)” for “A2”, “(B4.1)” for “(B1.2)”, “30” for “29”, “evaluated” for “evaluation and calculation were carried out”
as §6, with “2.5” for “2.8”, “3.0” for “3.2”, “A2, compound (D2.3)” for “A2”, “(B6.1)” for “(B1.2)”, “30” for “29”, “evaluated” for “evaluation and calculation were carried out”
Paddy field soil was put into a 1/10,000 are pot, and tubers of flatsedge (Cyperus serotinus) were planted and left to stand under an irrigated condition with a water depth of 3.5 cm. When flatsedge reached 2.5 to 3.0 leaf stage, wettable powders of compound A2, compound (D2.3) and compound (B8.1) were, respectively, diluted with water and applied under submerged condition so that the active ingredients became the prescribed amounts, respectively. […]

[3] = Growth inhibition of mixed broadleaf paddy weeds in paddy soil pots, application under submerged condition, visual rating and Colby expected value; details: mixed broadleaf paddy weeds, soil, 504 h; 0.12 g/a; false pimpernel one leaf-pair stage; 21 days after application; read-out: Growth inhibition rate (%) Observed
From the text: as §1, §2, §3, §4, §5
Paddy field soil was put into a 1/1,700 are pot, and mixed seeds of false pimpernel (Lindernia pyxidaria), abunome (Dopatrium junceum), long stem waterwort (Elatine triandra SCHK.) and toothcup (Rotala india) were sown and left to stand under an irrigated condition with a water depth of 3.5 cm. When false pimpernel reached one leaf-pair stage, wettable powders of compound A2 and compound (B1.2) were, respectively, diluted with water and applied under submerged condition so that the active ingredients became the prescribed amounts, respectively. The state of growth was visually observed 21 days after application, and evaluation and calculation were carried out in the same manner as in the above Test Example 1.
Paddy field soil was put into a 1/1,700 are pot, and mixed seeds of false pimpernel (Lindernia pyxidaria), abunome (Dopatrium junceum), long stem waterwort (Elatine triandra SCHK.) and toothcup (Rotala india) were sown and left to stand under an irrigated condition with a water depth of 3.5 cm. When false pimpernel reached two leaf-pair stage, a wettable powder of compound A2 and an emulsifiable concentrate of compound (B8.1) were, respectively, diluted with water and applied under submerged condition so that the active ingredients became the prescribed amounts, respectively. The state of growth was visually observed 22 days after application, and evaluation and calculation were carried out in the same manner as in the above Test Example 1.

[4] = 504 h, 3.0 to 3.3 leaf stage, 21 days after application
[5] = 528 h, 2.5 to 3.0 leaf stage, 22 days after application

Compound: COc1cc(OC)nc(NC(=O)NS(=O)(=O)c2c(-c3nnn(C)n3)cnn2C)n1 [Compound (B1.2), azimsulfuron]
- inhibition at 2.3 g/ha [1, 4]: 0%
- inhibition at 4.5 g/ha [1, 4]: 7%
- inhibition at 2.3 g/ha [1, 5]: 0%
- inhibition at 4.5 g/ha [1, 5]: 53%
- inhibition at 3 g/ha ([1]; 696 h, 0.03 g/a, 2.4 to 3.2 leaf stage, 29 days after application, Test Example 45): 30%
- inhibition at 6 g/ha ([1]; 696 h, 0.06 g/a, 2.4 to 3.2 leaf stage, 29 days after application, Test Example 45): 57%
- inhibition at 7.5 g/ha ([1]; 696 h, 0.075 g/a, 2.4 to 3.2 leaf stage, 29 days after application, Test Example 45): 60%
- inhibition at 1.25 g/ha ([2]; 0.0125 g/a): 20%
- inhibition at 1.5 g/ha ([2]; 0.015 g/a): 33%
- inhibition at 1.88 g/ha ([2]; 0.0188 g/a): 58%
- inhibition at 12 g/ha [3]: 60%
